We go through 3 molecules from US9902713B2, “Neuroprotective compounds and use thereof” (BOARD OF REGENTS OF THE UNIVERSITY OF TEXAS SYSTEM, priority 2013, dated 2018).

The subject of series [1] is degenerating axons. Nature of the series: Silver staining of degenerating axons after blast-mediated TBI.
Description: Optical densitometry of silver-stained tissue was used to quantify the magnitude of staining, such that greater impedance of light through the section reflected greater axonal degeneration (FIG. 18B).
All brains were stored in a freezer at −80° C. before sectioning. […] Every 1st-12th sections of each series of 12 sections (interval: 480 μm) were collected separately. All sections were stored free-floating in FD sections storage solution (FD Neurotechnologies, Columbia, Md.) at −20° C. before further processing.
For silver staining, sections were collected in 0.1 M phosphate buffer (pH 7.4) containing 4% paraformaldehyde and fixed for 5 days at 4° C. Sections were then processed for the detection of neurodegeneration with FD NeuroSilver Kit II (FD Neurotechnologies) according to the manufacturer's instructions (for detailed procedures, cf. the manual of PK301, available at www.fdneurotech.com). Subsequently, all sections were mounted on slides, dehydrated in ethanol, cleared in xylene, and coverslipped with Permount (Fisher Scientific, Fair Lawn, N.J.).
The microscope light intensity and camera exposure were held constant. The operator outlined areas of interest around specific brain regions and recorded the intensity of light passing through the slide. Degenerating axons allowed less light to pass through the section due to their uptake of silver stain, so lower light intensity correlated with increased degeneration. Operator performing quantification was blinded to condition and treatment.
The test system of series [2] is newborn hippocampal neurons. Nature of the series: In vivo neuroprotection assay: BrdU+ newborn hippocampal neurons. More on the design: species or system mice. The procedure: Results. Our most robust assay involves monitoring neuroprotection of newborn hippocampal neurons in mice because this assay gives a simultaneous readout of efficacy, acute toxicity and cell permeability. For this reason, all analogs of P7C3 were evaluated initially by infusing them directly into the left lateral ventricle of environmentally-deprived^ix live mice using a subcutaneously implanted osmotic minipump. Compounds were delivered intracerebroventricularly (ICV) over a 7 day period at a concentration of 10 μM (12 μL/d).^x Coincident with ICV administration of drug, mice were dosed daily with the thymidine analog bromodeoxyuridine (BrdU, IP, 50 mg/kg) to mark newly born hippocampal neural precursor cells. At the end of the 1 week dosing, animals were sacrificed and transcardially perfused. Brain slices were stained with antibodies to BrdU, and the number of surviving neural precursor cells was quantified by counting the number of BrdU+ cells in the hippocampal dentate gyrus. To avoid complications arising from the surgical implantation of the pump, we quantified neurogenesis in the hemisphere opposite to compound infusion. Finally, to obtain consistent data across many animals, the number of BrdU+ cells was normalized to the volume of the dentate gyrus.
In Vivo Neuroprotection Assay. Test compounds were evaluated as described previously.^2 Compounds were infused intracerebroventricularly (i.c.v.) into the left lateral ventricle of four adult (12 week old) wild-type C57BL/J6 mice by means of surgically implanted Alzet osmotic minipumps that delivered solution into animals at a constant rate of 0.5 μl/hour for 7 days. Alternatively, compounds were administered intraperitoneally twice daily. Bromodeoxyuridine (BrdU) was injected intraperitoneally at 50 mg/kg/day for six days during pump infusion. Twenty-four hours after the final BrdU administration, mice were sacrificed by transcardial perfusion with 4% paraformaldehyde at pH 7.4, and their brains were processed for immunohistochemical detection of incorporated BrdU in the SGZ. Dissected brains were immersed in 4% paraformaldehyde overnight at 4° C., then cryoprotected in sucrose before being sectioned into 40 μm thick free-floating sections. Unmasking of BrdU antigen was achieved through incubating tissue sections for two hours in 50% formamide/2×SSC at 65° C., followed by a five minute wash in 2×SSC and subsequent incubation for thirty minutes in 2M HCl at 37° C. Sections were processed for immunohistochemical staining with mouse monoclonal anti-BrdU (1:100). The number of BrdU+ cells in the entire dentate gyrus SGZ in the contralateral hemisphere (opposite side of surgically implanted pump) was quantified by counting BrdU+ cells within the SGZ and dentate gyrus in every fifth section throughout the entire hippocampus and then normalizing for dentate gyrus volume.

For series [3], the system named is cultured hippocampal neurons. Nature of the series: MPP+ toxicity in cultured neurons (MTT). Format: cell-based. Particulars: 10 μM compound, 10 μM MPP+, 24 hrs. The procedure:
FIGS. 35A-35B show P7C3-S243 and P7C3-A20 protect cultured hippocampal and cortical neurons from MPP^+ toxicity. […] Experiments were performed 2 independent times with 8-12 replicates of each sample both times.

Series [4] has as its system 6-OHDA-exposed rats. Nature of the series: 6-OHDA rat model of Parkinson's disease. It is filed as in vivo. The procedure: (FIG. 34A) Schematic of the experimental design illustrates that rats received a unilateral stereotactic injection of 6-OHDA or saline in the medial forebrain bundle (MFB), followed by daily injection of P7C3-S243 for 7 days. Open field and cylinder tests were performed 8-10 days after 6-OHDA injection, and the amphetamine circling test was conducted on day 11. Rats were transcardially perfused on day 14, and brain tissue was processed for neurochemistry and immunohistochemistry analysis. […] Scale bars=250 μm. […] No difference was found in the concentration of serotonin in all groups (one-way ANOVA). For all experiments in FIG. 34, n=10 per group except for the HPLC analysis, for which n=7.
FIGS. 36A-36F show pretreatment with P7C3-A20 or P7C3-S243 (10 mg/kg/day) protects rats from 6-OHDA toxicity. (FIG. 36A) Schematic of the experimental design illustrates that rats were pretreated for 3 days with either P7C3-A20 or P7C3-S243, and then administered either 6-OHDA or saline by stereotactic injection in the medial forebrain bundle (MFB), followed by 7 more days of treatment with either P7C3-A20 or P7C3-S243. Open field and cylinder tests were performed between days 8-10, and the amphetamine circling test was performed on day 11. Rats were transcardially perfused on day 14, and brain tissue was processed for neurochemistry and immunohistochemistry analysis. […] Scale bars=250 μm.
FIGS. 37A-37B show treatment of 6-OHDA-exposed rats with P7C3-S243 preserves both TH and NeuN staining, illustrating that TH staining corresponds to neuronal survival. […] DAPI was used as a nuclear marker.

A short description of series [5]: Long-term treatment: weight, behavior, appearance.
The subject of series [6] is cerebral cortical neurons. Particulars: previously reported; cited from earlier work.
For series [7], the system named is dopaminergic neurons within the substantia nigra. Conditions: previously reported; cited from earlier work.
Series [8] relates to H2009. Put plainly: Toxicity towards human cancer cell line. Particulars: NCI-H2009. It is filed as cell-based.
Series [9] deals with 2B6 (Homo sapiens, UniProt P20813). Nature of the series: Cytochrome P450 inhibition. Format: in vitro ADME.
The target in series [10] is peripheral benzodiazepine receptor (translocator protein, TSPO) (Rattus norvegicus, UniProt P16257). Nature of the series: Ligand displacement (Psychoactive Drug Screening Program). It is filed as binding.
Where [11] appears, read: 10 mg/kg/day, 7 days after 6-OHDA.
Setting [12] is: 10 mg/kg/day, pretreated 3 days plus 7 more days.
[13] abbreviates: single enantiomers, 3 mg/kg/day.

One may read the IC50 as the concentration at which inhibition is half-maximal.

Entries after “also recorded” stand apart in the source; their conditions may differ.

2B6, sequence (P20813 whole entry): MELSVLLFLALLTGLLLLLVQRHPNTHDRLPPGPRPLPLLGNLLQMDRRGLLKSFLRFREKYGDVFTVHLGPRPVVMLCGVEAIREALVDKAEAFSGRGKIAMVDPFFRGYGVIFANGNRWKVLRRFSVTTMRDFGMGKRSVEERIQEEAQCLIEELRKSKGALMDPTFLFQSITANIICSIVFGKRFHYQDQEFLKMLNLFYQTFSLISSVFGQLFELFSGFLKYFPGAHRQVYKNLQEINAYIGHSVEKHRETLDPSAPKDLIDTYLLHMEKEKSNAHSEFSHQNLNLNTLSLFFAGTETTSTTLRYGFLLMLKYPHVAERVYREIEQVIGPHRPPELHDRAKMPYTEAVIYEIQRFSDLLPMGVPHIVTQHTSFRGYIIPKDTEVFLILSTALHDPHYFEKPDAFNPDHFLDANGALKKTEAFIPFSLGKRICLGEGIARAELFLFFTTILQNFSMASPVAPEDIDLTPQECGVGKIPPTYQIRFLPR

Turning to `COc1cccc(NCC(F)Cn2c3ccc(Br)cc3c3cc(Br)ccc32)n1` (racemic) [P7C3-S243, N-(3-(3,6-dibromo-9H-carbazol-9-yl)-2-fluoropropyl)-6-methoxypyridin-2-amine], in series [1] (0.3 mg/kg/day), the “axonal degeneration, cerebellar molecular layer” value is listed as “Extensive axonal degeneration” and the “silver staining in CA1, corpus callosum, thalamus, cortex, olfactory bulb, striatum, dentate gyrus, cerebellum” value is reported as “prominent silver staining of degenerating axons”. The “axonal degeneration, cerebellar molecular layer” value in series [1] (3 and 30 mg/kg/day) is “blocked”. In addition, the “axonal degeneration, CA1 stratum radiatum” value in [1] (3 and 30 mg/kg/day from 24 hours after injury) was “blocked”. The “axonal and cellular degeneration, thalamus, cortex, CA1” value in [1] (14 days after injury, treatment from 24 hours, FIG. 7) is on record as “ameliorated”. In addition, in series [2] (ICV, 1 week, FIG. 1), the “activity relative to P7C3 and P7C3-A20” value was “superior to P7C3 and comparable to P7C3-A20”; the “number of surviving newborn hippocampal neurons” value is “approximately doubled”. In series [2] (administered intraperitoneally), the “dose at ceiling of efficacy” value was 10 mg/kg/day and the “dose at which active” value is 1 mg/kg/day. Further, in series [3], the “protection (MTT)” value is “significant protection”. In [4] (10 mg/kg/day for 7 days), the “TH and NeuN immunofluorescence of the SNc” value is “preservation of co-localized tyrosine hydroxylase (TH) and NeuN”. Moreover, in [4] (setting [11]), the “TH-positive cells compared to 6-OHDA-Vehicle group” value is listed as “significant increase”, the “ipsilateral rotations (amphetamine-circling) of 6-OHDA+vehicle animals compared to 6-OHDA+compound animals” value is given as “significant increase”, the “total distance traveled (open field) of 6-OHDA+vehicle animals compared to 6-OHDA+compound animals” value is “significant decrease” and the “total rearings (cylinder test) of 6-OHDA+vehicle animals compared to 6-OHDA+compound animals” value is given as “significant decrease”. The “striatal concentration of dopamine, DOPAC, and homovanillic acid compared to 6-OHDA-Vehicle group” value in series [4] (10 mg/kg/day, 7 days after 6-OHDA, HPLC) is recorded as “significant increase”. Moreover, in series [4] (setting [12]), the “TH-positive cells compared to 6-OHDA-Vehicle group” value is reported as “significant increase”, the “ipsilateral rotations (amphetamine-circling) of 6-OHDA+vehicle animals compared to 6-OHDA+compound animals” value is on record as “significant increase”, the “total distance traveled (open field) of 6-OHDA+vehicle animals compared to 6-OHDA+compound animals” value was “significant decrease” and the “total rearings (cylinder test) of 6-OHDA+vehicle animals compared to 6-OHDA+compound animals” value is “significant decrease”. Also, in series [5] (up to 10 mg/kg/d for 21 d), the “impact on weight, behavior or appearance” value was “no negative impact”.
As to `COc1cccc(NCC(F)Cn2c3ccc(Br)cc3c3cc(Br)ccc32)c1` (stereo not drawn) [P7C3-A20, N-(3-(3,6-dibromo-9H-carbazol-9-yl)-2-fluoropropyl)-3-methoxyaniline], the “protection of cerebral cortical neurons” value in series [6] is recorded as “protect rat cerebral cortical neurons”. Moreover, the “protection of substantia nigra neurons from MPTP (earlier report)” value in [7] was “protect neurons in the substantia nigra”. Further, in [3], the “protection (MTT)” value is given as “significant protection”. For the same molecule, in [4] (setting [12]), the “TH-positive cells compared to 6-OHDA-Vehicle group” value is recorded as “significant increase”, the “ipsilateral rotations (amphetamine-circling) of 6-OHDA+vehicle animals compared to 6-OHDA+compound animals” value is on record as “significant increase”, the “total distance traveled (open field) of 6-OHDA+vehicle animals compared to 6-OHDA+compound animals” value is “significant decrease” and the “total rearings (cylinder test) of 6-OHDA+vehicle animals compared to 6-OHDA+compound animals” value was “significant decrease”. Also, the “impact on weight, behavior or appearance” value in series [5] (up to 40 mg/kg/d for 21 d) is reported as “no negative impact”.
As for `COc1cccc(NCC(F)Cn2c3ccc(Br)cc3c3cc(Br)ccc32)n1` (single isomer, unassigned; (-)) [(−)-P7C3-S243, (−)-N-(3-(3,6-dibromo-9H-carbazol-9-yl)-2-fluoropropyl)-6-methoxypyridin-2-amine], in series [1] (setting [13]), the “axonal degeneration, CA1 stratum radiatum” value was “complete protection from axonal degeneration”; the “axonal degeneration, cerebellar molecular layer” value was “blocked”; the “silver staining in CA1, corpus callosum, thalamus, cortex, olfactory bulb, striatum, dentate gyrus, cerebellum” value was “protected from axonal degeneration”. Also, in [2] (ICV 0.5 μL/h, 7 days, FIG. 2), the “neuroprotective activity of pure enantiomers” value was “highly active; also recorded: high activity”. The molecule further had an IC50 in series [8] of over 10 µM. For the same molecule, in series [9], the “sensitivity of cytochrome P450” value is reported as “insensitive”. In series [10], the IC50 was 350 nM.
